Columns and labels:
[1] = test system: TgSOD1 mice; test: Meso Scale Discovery multi-spot cytokine assay, plasma of TgSOD1 mice; type: in vivo; conditions: 6.3 mg/kg i.p.
Description: (§1) Cromolyn. sodium was provide by AZ Therapies and dissolved in PBS. 100 mM solution was used for in vivo experiments. Dulbecco's PBS was used to dilute the solution for intraperitoneal injections for a final dose of 6.3 mg/kg.
(§2) 149 male and female age- and litter-matched transgenic TgSOD1^G93A and wild-type WtSOD1^G93A mice were used with the following breakdown: Females (19 WtSOD1-Vehicle, 17 WtSOD1-Cromolyn, 19 TgSOD1-Vehicle, and 17 TgSOD1-Cromolyn) and Males (18 WtSOD1-Vehicle, 21 WtSOD1-Cromolyn, 21 TgSOD1-Vehicle, 17 TgSOD1-Cromolyn). The mice received once daily injections of either vehicle or cromolyn sodium (6.3 mg/kg, […] i.p.) 5 days per week starting at P60 until euthanasia.
(§3) B6SJL-Tg (SOD1 G93A)1Gur/J transgenic male mice were obtained from Jackson Laboratory and bred with C57BL/6 female mice to obtain wild-type WtSOD1 and mutant transgenic TgSOD1^G93A-expressing mice. To determine mouse genotype, RNA extraction and complimentary DNA (cDNA) synthesis was performed from tail biopsies acquired at postnatal day 28-40 followed by quantitative real-time PCR (qRT-PCR) using primers for the mutant G93A SOD1 gene (GGGAAGCTGTTGTCCCA AG and […])(SEQ ID NO: 1 and SEQ ID NO: 2, respectively). Both age- and litter-matched WtSOD1 and TgSOD1 male. and female mice were used for all studies as described below.
Spinal cord frozen tissue was homogenized in ice-cold RIPA buffer (Thermo Fisher Scientific, #8990) supplemented with protease inhibitor cocktail (Thermo Fisher Scientific, #78430). Samples were centrifuged at 45,000 g for 30 minutes at 4° C. using an Optima TL ultracentrifuge and a TLA 120.2 rotor (Beckman Coulter). Expression levels of the cytokines were assessed in the supernatants derived from spinal cord tissue or in the plasma, using an electrocheiniluminescence-based multi-array method and MESO Quickplex SQ 120 system (MSD, Rockville, Md., USA). The 96-well V-FLEX Proinflammatory Mouse 1 Kit (Meso Scale Discovery, #K15048D) was used to measure simultaneously IL-1β, IL-2, IL-5, IL-6, IL-10, and TNFα, following the manufacturer's instructions. Briefly, samples were diluted in the calibrator and added to the plate coated with an array of cytokine capture antibodies. Samples were incubated. in the plate for 2 hours with shaking at room temperature, followed by washes with the wash buffer provided in the kit. The detection antibody solution was added to each well and the plate was incubated for 2 hours. The plate was washed with the wash buffer and the 2× Read Buffer T was added. The signal was immediately measured on a MESO QuickIlex SQ 120 instrument and was analyzed using the DISCOVERY WORKBENCH 4.0 software (Meso Scale Diagnostics, LLC., Rockville, Md., USA). Protein concentrations in the supernatants or the plasma samples were measured using the Pierce BCA protein assay kit (Thermo Scientific). Values in the graphs represent levels of cytokines normalized to the corresponding protein concentrations.
Data are presented as median values. Box plots are used for graphical representation of population data with the central line representing the median, the edges representing the interquartile ranges, and the whiskers representing 10-90th percentiles. Data are also represented as medians±interquartile ranges or percent values. Sample sizes are included in the figure legends. Comparisons for unrelated samples were performed using a two-way ANOVA followed by Tukey's or Sidak's multiple comparison's test or a one-way ANOVA test followed by Tukey's multiple comparison post-tests at a significance level (a) of 0.05. For p<0.05 and >0.00001, exact P values (two-tailed) are reported.
Additionally, levels of L-1β, IL-2, IL-5, IL-6, IL-10, and TNFα were assessed in the plasma of a subset of mice (Females: 13 WtSOD1-Vehicle, 15 WtSOD1-Cromolyn, 6 TgSOD1-Vehicle, and 6 TgSOD1-Cromolyn; and Males: 14 WtSOD1-Vehicle, 10 WtSOD1-Cromolyn, 6 TgSOD1-Vehicle, 3 TgSOD1-Cromolyn).

[2] = test system: BV2-CD33wT cells; test: Aβ42 uptake by ELISA in BV2 cells stably expressing CD33; type: cell-based
Description: (§4) Naive BV2 microglial cells were treated with DMSO (control) or cromolyn (500 μM) for 16 hours. Afterwards, the cells were incubated with fluoresceraly-labeled A1342 (red) and DMSO or cromolyn for 2 hours. After incubation, the cells were labeled with a plasma membrane dye (PM, green) and imaged. BV2 microglial cells or BV2 cells stably expressing CD33 (BV2-CD33wT) were treated with DMSO or different concentrations of cromolyn for 16 hours. Then, cells were incubated with soluble untagged Aβ42 and DMSO or cromolyn for 2 hours and collected for ELBA analysis.

[3] = test system: TgSOD1 mice; test: Meso Scale Discovery multi-spot cytokine assay, spinal cord lysates of TgSOD1 mice; type: in vivo; conditions: TgSOD1-Cromolyn vs TgSOD1-Vehicle; cromolyn sodium 6.3 mg/kg i.p. once daily, 5 days per week from P60; p=0.0273
Description: as §1, §2
as §3, with “below. […]” for “below.”

[4] = test system: BV2 microglial cells; test: Aβ42 uptake by ELISA and confocal microscopy in naive BV2 microglial cells; type: cell-based
Description: as §4

[5] = 16 hours pretreatment, then 2 hours with Aβ42, vs vehicle (DMSO), ELISA
[6] = different concentrations of cromolyn

In the case of `O=C(O)c1cc(=O)c2c(OCC(O)COc3cccc4oc(C(=O)O)cc(=O)c34)cccc2o1` [cromolyn, cromolyn sodium], the “IL-10 level in plasma” value ([1]; TgSOD1-Cromolyn vs TgSOD1-Vehicle, p=0.0095) is reported as “significantly decreased”, the “IL-2 level in plasma” value ([1]; TgSOD1-Cromolyn vs TgSOD1-Vehicle, p=0.0211) is reported as “significantly decreased” and the “IL-6 level in plasma” value ([1]; TgSOD1-Cromolyn vs TgSOD1-Vehicle, p=0.0273) is reported as “significantly decreased”. For the same compound, the “TNFα level in plasma” value ([1]; TgSOD1-Cromolyn vs TgSOD1-Vehicle, p=0.110) was “trend towards a decrease”, the “IL-1β level in plasma” value ([1]; between groups) was “no statistically significant difference” and the “IL-5 level in plasma” value ([1]; between groups) was “no statistically significant difference”. For the same compound, the “internalized Aβ42 in BV2-CD33wT cells” value [2, 5] was “increased levels of internalized Aβ42”, the “dose dependence of Aβ42 uptake modulation, BV2-CD33wT cells” value [2, 6] was “dose-dependent effect” and the “TNFα level in spinal cord” value [3] was “significant decrease”. The “Aβ42 uptake in naive BV2 microglial cells” value [4, 5] was “increased Aβ42 uptake” and the “dose dependence of Aβ42 uptake modulation, naive BV2 cells” value [4, 6] was “dose-dependent effect”.

Reference: patent US20220218652A1, “METHODS OF TREATING CYTOKINE RELEASE SYNDROME” (The General Hospital Corporation, priority 2018, published 2022)
